Test results as given in PubChem BioAssay (NCI).
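48-hour exposure; five concentrations; linearly interpolated endpoints. TGI: total growth inhibition.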

What was measured:
Assay in all cases: NCI anticancer screen, dose series, 48 h
786-0 renal = tested on: 786-0 renal
A549 NSCLC = tested on: A549 NSCLC
ACHN renal = tested on: ACHN renal
BT-549 breast = tested on: BT-549 breast
CAKI-1 renal = tested on: CAKI-1 renal
CCRF-CEM leukemia = tested on: CCRF-CEM leukemia
COLO 205 colon = tested on: COLO 205 colon
DU-145 prostate = tested on: DU-145 prostate
EKVX NSCLC = tested on: EKVX NSCLC
HCC-2998 colon = tested on: HCC-2998 colon
HCT-116 colon = tested on: HCT-116 colon
HCT-15 colon = tested on: HCT-15 colon
HL-60(TB) leukemia = tested on: HL-60(TB) leukemia
HOP-62 NSCLC = tested on: HOP-62 NSCLC
HOP-92 NSCLC = tested on: HOP-92 NSCLC
HS 578T breast = tested on: HS 578T breast
HT29 colon = tested on: HT29 colon
IGROV1 ovarian = tested on: IGROV1 ovarian
K-562 leukemia = tested on: K-562 leukemia
KM12 colon = tested on: KM12 colon
M14 melanoma = tested on: M14 melanoma
MALME-3M melanoma = tested on: MALME-3M melanoma
MCF7 breast = tested on: MCF7 breast
MDA-MB-231 breast = tested on: MDA-MB-231 breast
MDA-MB-435 = tested on: MDA-MB-435
MDA-N = tested on: MDA-N
MOLT-4 leukemia = tested on: MOLT-4 leukemia
NCI-H226 lung = tested on: NCI-H226 lung
NCI-H23 lung = tested on: NCI-H23 lung
NCI-H460 lung = tested on: NCI-H460 lung
NCI-H522 lung = tested on: NCI-H522 lung
NCI/ADR-RES ovarian = tested on: NCI/ADR-RES ovarian
OVCAR-3 ovarian = tested on: OVCAR-3 ovarian
OVCAR-4 ovarian = tested on: OVCAR-4 ovarian
OVCAR-5 ovarian = tested on: OVCAR-5 ovarian
OVCAR-8 ovarian = tested on: OVCAR-8 ovarian
PC-3 prostate = tested on: PC-3 prostate
RPMI-8226 leukemia = tested on: RPMI-8226 leukemia
RXF 393 renal = tested on: RXF 393 renal
SF-268 CNS = tested on: SF-268 CNS
SF-295 CNS = tested on: SF-295 CNS
SF-539 CNS = tested on: SF-539 CNS
SK-MEL-2 melanoma = tested on: SK-MEL-2 melanoma
SK-MEL-28 melanoma = tested on: SK-MEL-28 melanoma
SK-MEL-5 melanoma = tested on: SK-MEL-5 melanoma
SK-OV-3 ovarian = tested on: SK-OV-3 ovarian
SN12C renal = tested on: SN12C renal
SNB-19 CNS = tested on: SNB-19 CNS
SW-620 colon = tested on: SW-620 colon
T-47D breast = tested on: T-47D breast
TK-10 renal = tested on: TK-10 renal
U251 CNS = tested on: U251 CNS
UACC-257 melanoma = tested on: UACC-257 melanoma
UACC-62 melanoma = tested on: UACC-62 melanoma
UO-31 renal = tested on: UO-31 renal
A498 renal = tested on: A498 renal
LOX IMVI melanoma = tested on: LOX IMVI melanoma
SNB-75 CNS = tested on: SNB-75 CNS

## O=S(=O)(O)c1ccc(N=Nc2ccc(N=Nc3c(O)c(S(=O)(=O)O)cc4cc(S(=O)(=O)O)ccc34)cc2)cc1
786-0 renal
  TGI: > 100 µM
A549 NSCLC
  TGI: > 100 µM
ACHN renal
  TGI: > 100 µM
BT-549 breast
  TGI: > 100 µM
CAKI-1 renal
  TGI: > 100 µM
CCRF-CEM leukemia
  TGI: > 100 µM
COLO 205 colon
  TGI: > 100 µM
DU-145 prostate
  TGI: > 100 µM
EKVX NSCLC
  TGI: > 100 µM
HCC-2998 colon
  TGI: > 100 µM
HCT-116 colon
  TGI: > 100 µM
HCT-15 colon
  TGI: > 100 µM
HL-60(TB) leukemia
  TGI: > 100 µM
HOP-62 NSCLC
  TGI: > 100 µM
HOP-92 NSCLC
  TGI: > 100 µM
HS 578T breast
  TGI: > 100 µM
HT29 colon
  TGI: > 100 µM
IGROV1 ovarian
  TGI: > 100 µM
K-562 leukemia
  TGI: > 100 µM
KM12 colon
  TGI: > 100 µM
M14 melanoma
  TGI: > 100 µM
MALME-3M melanoma
  TGI: > 100 µM
MCF7 breast
  TGI: > 100 µM
MDA-MB-231 breast
  TGI: > 100 µM
MDA-MB-435
  TGI: > 100 µM
MDA-N
  TGI: > 100 µM
MOLT-4 leukemia
  TGI: > 100 µM
NCI-H226 lung
  TGI: > 100 µM
NCI-H23 lung
  TGI: > 100 µM
NCI-H460 lung
  TGI: > 100 µM
NCI-H522 lung
  TGI: > 100 µM
NCI/ADR-RES ovarian
  TGI: > 100 µM
OVCAR-3 ovarian
  TGI: > 100 µM
OVCAR-4 ovarian
  TGI: > 100 µM
OVCAR-5 ovarian
  TGI: > 100 µM
OVCAR-8 ovarian
  TGI: > 100 µM
PC-3 prostate
  TGI: > 100 µM
RPMI-8226 leukemia
  TGI: > 100 µM
RXF 393 renal
  TGI: > 100 µM
SF-268 CNS
  TGI: > 100 µM
SF-295 CNS
  TGI: > 100 µM
SF-539 CNS
  TGI: > 100 µM
SK-MEL-2 melanoma
  TGI: > 100 µM
SK-MEL-28 melanoma
  TGI: > 100 µM
SK-MEL-5 melanoma
  TGI: > 100 µM
SK-OV-3 ovarian
  TGI: > 100 µM
SN12C renal
  TGI: > 100 µM
SNB-19 CNS
  TGI: > 100 µM
SW-620 colon
  TGI: > 100 µM
T-47D breast
  TGI: > 100 µM
TK-10 renal
  TGI: > 100 µM
U251 CNS
  TGI: > 100 µM
UACC-257 melanoma
  TGI: > 100 µM
UACC-62 melanoma
  TGI: > 100 µM
UO-31 renal
  TGI: > 100 µM

## Cc1ccc(Nc2nc(C)c(C(=O)CC(=O)C(=O)Nc3c(C)cccc3C(C)(C)C)s2)cc1
786-0 renal
  TGI: > 100 µM
A498 renal
  TGI: > 100 µM
A549 NSCLC
  TGI: > 100 µM
ACHN renal
  TGI: > 100 µM
BT-549 breast
  TGI: > 100 µM
CAKI-1 renal
  TGI: > 100 µM
CCRF-CEM leukemia
  TGI: > 100 µM
COLO 205 colon
  TGI: > 100 µM
DU-145 prostate
  TGI: > 100 µM
EKVX NSCLC
  TGI: > 100 µM
HCC-2998 colon
  TGI: > 100 µM
HCT-116 colon
  TGI: > 100 µM
HCT-15 colon
  TGI: > 100 µM
HL-60(TB) leukemia
  TGI: > 100 µM
HOP-62 NSCLC
  TGI: > 100 µM
HOP-92 NSCLC
  TGI: > 100 µM
HS 578T breast
  TGI: > 100 µM
HT29 colon
  TGI: > 100 µM
IGROV1 ovarian
  TGI: > 100 µM
K-562 leukemia
  TGI: > 100 µM
KM12 colon
  TGI: > 100 µM
LOX IMVI melanoma
  TGI: > 100 µM
M14 melanoma
  TGI: > 100 µM
MCF7 breast
  TGI: > 100 µM
MDA-MB-231 breast
  TGI: > 100 µM
MDA-MB-435
  TGI: > 100 µM
MDA-N
  TGI: > 100 µM
MOLT-4 leukemia
  TGI: > 100 µM
NCI-H226 lung
  TGI: > 100 µM
NCI-H23 lung
  TGI: > 100 µM
NCI-H460 lung
  TGI: > 100 µM
NCI-H522 lung
  TGI: > 100 µM
NCI/ADR-RES ovarian
  TGI: > 100 µM
OVCAR-3 ovarian
  TGI: > 100 µM
OVCAR-4 ovarian
  TGI: > 100 µM
OVCAR-5 ovarian
  TGI: > 100 µM
OVCAR-8 ovarian
  TGI: > 100 µM
PC-3 prostate
  TGI: > 100 µM
RPMI-8226 leukemia
  TGI: > 100 µM
RXF 393 renal
  TGI: > 100 µM
SF-268 CNS
  TGI: > 100 µM
SF-295 CNS
  TGI: > 100 µM
SF-539 CNS
  TGI: > 100 µM
SK-MEL-2 melanoma
  TGI: > 100 µM
SK-MEL-5 melanoma
  TGI: > 100 µM
SK-OV-3 ovarian
  TGI: > 100 µM
SN12C renal
  TGI: > 100 µM
SNB-19 CNS
  TGI: > 100 µM
SW-620 colon
  TGI: > 100 µM
T-47D breast
  TGI: > 100 µM
TK-10 renal
  TGI: > 100 µM
U251 CNS
  TGI: > 100 µM
UACC-257 melanoma
  TGI: > 100 µM
UACC-62 melanoma
  TGI: > 100 µM
UO-31 renal
  TGI: > 100 µM

## Oc1ccc2c(c1)OCC1c3ccccc3OC21 (stereo not given)
786-0 renal
  TGI: > 100 µM
A498 renal
  TGI: > 100 µM
ACHN renal
  TGI: > 100 µM
BT-549 breast
  TGI: > 100 µM
CAKI-1 renal
  TGI: > 100 µM
CCRF-CEM leukemia
  TGI: > 100 µM
COLO 205 colon
  TGI: > 100 µM
DU-145 prostate
  TGI: > 100 µM
EKVX NSCLC
  TGI: 86.7 µM
HCC-2998 colon
  TGI: > 100 µM
HCT-116 colon
  TGI: > 100 µM
HCT-15 colon
  TGI: > 100 µM
HL-60(TB) leukemia
  TGI: 83.4 µM
HOP-62 NSCLC
  TGI: > 100 µM
HOP-92 NSCLC
  TGI: > 100 µM
HS 578T breast
  TGI: > 100 µM
HT29 colon
  TGI: > 100 µM
IGROV1 ovarian
  TGI: > 100 µM
K-562 leukemia
  TGI: > 100 µM
KM12 colon
  TGI: > 100 µM
LOX IMVI melanoma
  TGI: > 100 µM
M14 melanoma
  TGI: > 100 µM
MCF7 breast
  TGI: > 100 µM
MDA-MB-231 breast
  TGI: > 100 µM
MDA-MB-435
  TGI: > 100 µM
MDA-N
  TGI: > 100 µM
MOLT-4 leukemia
  TGI: 65.2 µM
NCI-H226 lung
  TGI: > 100 µM
NCI-H23 lung
  TGI: > 100 µM
NCI-H460 lung
  TGI: > 100 µM
NCI/ADR-RES ovarian
  TGI: > 100 µM
OVCAR-3 ovarian
  TGI: > 100 µM
OVCAR-4 ovarian
  TGI: > 100 µM
OVCAR-5 ovarian
  TGI: > 100 µM
OVCAR-8 ovarian
  TGI: > 100 µM
PC-3 prostate
  TGI: > 100 µM
RPMI-8226 leukemia
  TGI: > 100 µM
RXF 393 renal
  TGI: > 100 µM
SF-268 CNS
  TGI: > 100 µM
SF-295 CNS
  TGI: > 100 µM
SF-539 CNS
  TGI: > 100 µM
SK-MEL-2 melanoma
  TGI: > 100 µM
SK-MEL-28 melanoma
  TGI: > 100 µM
SK-MEL-5 melanoma
  TGI: > 100 µM
SK-OV-3 ovarian
  TGI: > 100 µM
SN12C renal
  TGI: > 100 µM
SNB-19 CNS
  TGI: > 100 µM
SNB-75 CNS
  TGI: > 100 µM
SW-620 colon
  TGI: > 100 µM
T-47D breast
  TGI: > 100 µM
TK-10 renal
  TGI: > 100 µM
U251 CNS
  TGI: > 100 µM
UACC-257 melanoma
  TGI: > 100 µM
UACC-62 melanoma
  TGI: > 100 µM
UO-31 renal
  TGI: > 100 µM
